Calls of active or inactive are those of the source.
How the values were obtained:
[1] = viability of PTEN-deleted HCT116 cells – cell-based, HCT116 PTEN knockout, dose response (AID 1047); format: functional;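 also: HCT116 colon tumor cells with PTEN knocked out; cells exposed to compound for 60 hours before readout; potency for loss of cell viability measured by luminescence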
[2] = viability of HCT116 lacking mutant beta-catenin – cell-based, human colon tumor, dose response (AID 1045); format: functional;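 also: HCT116 colon tumor cells with beta catenin knocked out; cells exposed to compound for 60 hours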
[3] = molecular target: T1, Corticotropin-releasing factor receptor 2/Corticotropin-releasing factor-binding protein (Homo sapiens, UniProt P24387+Q13324); assay: activators of CRF receptor 2 with binding protein – uHTS hits, confirmation (AID 602473); format: functional; conditions: read-out: EC50_Mean
T1 sequence (Q13324 whole entry): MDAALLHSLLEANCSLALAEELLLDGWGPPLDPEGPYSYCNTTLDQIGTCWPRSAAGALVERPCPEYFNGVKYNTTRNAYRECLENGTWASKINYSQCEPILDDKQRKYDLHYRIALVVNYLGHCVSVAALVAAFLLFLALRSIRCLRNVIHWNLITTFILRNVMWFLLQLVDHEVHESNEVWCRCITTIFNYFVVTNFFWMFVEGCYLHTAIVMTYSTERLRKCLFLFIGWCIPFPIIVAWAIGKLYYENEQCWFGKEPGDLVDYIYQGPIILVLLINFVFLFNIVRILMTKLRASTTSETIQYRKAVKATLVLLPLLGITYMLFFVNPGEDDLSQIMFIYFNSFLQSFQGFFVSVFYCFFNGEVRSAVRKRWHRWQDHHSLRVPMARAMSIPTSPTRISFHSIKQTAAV
T1 sequence (P24387 whole entry): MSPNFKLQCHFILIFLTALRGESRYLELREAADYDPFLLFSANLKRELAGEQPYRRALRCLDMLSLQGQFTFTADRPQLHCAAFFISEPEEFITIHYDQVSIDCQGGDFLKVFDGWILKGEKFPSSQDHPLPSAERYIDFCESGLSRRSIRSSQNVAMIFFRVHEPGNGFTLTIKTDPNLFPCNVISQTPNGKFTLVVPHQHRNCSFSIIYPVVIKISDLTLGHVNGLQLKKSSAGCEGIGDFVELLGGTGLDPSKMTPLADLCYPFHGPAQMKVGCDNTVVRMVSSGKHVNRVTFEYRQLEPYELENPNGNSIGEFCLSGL

Fatty acid synthase [4] = molecular target: T2, Fatty acid synthase (Homo sapiens, UniProt P49327); assay: inhibition of human FAS-TE enzyme activity – biochemical, endpoint fluorescence intensity, uHTS hits, dose response (AID 624327); format: functional;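 also: fluorescence from hydrolysis of an O-methyl fluorescein acyl ester substrate by the enzyme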
Fatty acid synthase [5] = molecular target: T2, Fatty acid synthase; assay: inhibition of human FAS-TE enzyme activity – biochemical, kinetic fluorescence intensity, dose response (AID 624326); format: functional;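 also: rate of fluorescence rise from hydrolysis of a fluorogenic O-methyl fluorescein ester substrate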
[6] = NIH-3T3 fibroblast cytotoxicity, dose response, cytotoxicity control, cell-based, fluorescence, Alamar Blue, secondary assay (AID 2327); format: functional;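 also: NIH-3T3 mouse fibroblasts cultured with fluconazole at 8 µg/mL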
[7] = fluconazole-exposed Candida albicans growth modulators – fluorescence, retest, confirmation (AID 2467); format: functional, cell-based
BJ [8] = assay: BJ-TERT fibroblast viability loss – cell-based, RAS-independent, luminescence, dose response (AID 1933); format: functional; conditions: Homo sapiens
BJ [9] = assay: cells; format: functional, cell-based; conditions: Homo sapiens
BJ [10] = assay: BJ-TERT-LT-ST fibroblast viability loss – cell-based, RAS-independent, luminescence, dose response (AID 1935); format: functional; conditions: Homo sapiens;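 also: BJ fibroblasts immortalized with TERT plus LT and ST oncogenes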
[11] = DRD fibroblast viability loss – cell-based, non-viral oncogenic, luminescence, dose response (AID 1934); format: functional; conditions: Homo sapiens
[12] = molecular target: T3, Ubiquitin-conjugating enzyme E2 N (Homo sapiens, UniProt P61088); format: functional;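 also: Dose-response confirmation in a TR-FRET assay detecting UBC13-driven polyubiquitin chain formation, inhibition measured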
T3 sequence (P61088 whole entry): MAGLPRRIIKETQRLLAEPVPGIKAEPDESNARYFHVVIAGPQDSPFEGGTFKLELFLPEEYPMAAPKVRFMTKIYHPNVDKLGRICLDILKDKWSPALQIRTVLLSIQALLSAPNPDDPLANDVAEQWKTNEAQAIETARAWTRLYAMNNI

INS1 = assay: INS-1E survival protection against cytokine death – cell-based, luminescence, retest, dose response (AID 449756); format: functional; conditions: Rattus norvegicus;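 also: cell death triggered by IL-1 beta plus TNF-alpha plus IFN-gamma mixture; protective hits raise ATP signal compared with cytokine alone wells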
[13] = molecular target: T4, Replicative DNA helicase DnaB (Mycobacterium tuberculosis, UniProt P9WMR3); assay: DnaB intein splicing inhibitors, dose response, biochemical, cell-free fluorescence (AID 449749); format: functional
T4 sequence (P9WMR3 whole entry): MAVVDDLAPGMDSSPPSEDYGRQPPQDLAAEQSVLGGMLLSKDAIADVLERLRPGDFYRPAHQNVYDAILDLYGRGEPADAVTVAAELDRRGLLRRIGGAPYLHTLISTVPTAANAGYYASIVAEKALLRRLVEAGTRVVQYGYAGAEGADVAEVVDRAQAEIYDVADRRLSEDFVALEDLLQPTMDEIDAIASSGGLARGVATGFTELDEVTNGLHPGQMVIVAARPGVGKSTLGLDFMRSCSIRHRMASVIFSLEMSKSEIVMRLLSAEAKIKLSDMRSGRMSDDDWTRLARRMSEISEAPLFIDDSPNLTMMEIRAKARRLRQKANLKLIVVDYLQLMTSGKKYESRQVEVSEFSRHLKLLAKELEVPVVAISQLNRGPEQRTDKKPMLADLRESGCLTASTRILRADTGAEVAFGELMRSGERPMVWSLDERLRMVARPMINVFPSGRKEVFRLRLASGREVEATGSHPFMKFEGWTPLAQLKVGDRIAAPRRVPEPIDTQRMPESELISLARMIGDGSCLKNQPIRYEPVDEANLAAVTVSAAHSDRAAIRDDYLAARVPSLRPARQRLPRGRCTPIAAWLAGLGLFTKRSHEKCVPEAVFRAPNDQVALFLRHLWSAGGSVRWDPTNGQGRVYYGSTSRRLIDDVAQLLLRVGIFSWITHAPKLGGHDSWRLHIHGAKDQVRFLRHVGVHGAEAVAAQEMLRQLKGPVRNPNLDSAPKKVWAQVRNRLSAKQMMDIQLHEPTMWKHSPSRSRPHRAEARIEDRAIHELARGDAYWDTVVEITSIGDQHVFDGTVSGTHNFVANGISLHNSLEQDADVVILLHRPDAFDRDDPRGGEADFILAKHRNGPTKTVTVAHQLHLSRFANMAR

Protein RecA = molecular target: T5, Protein RecA (Mycobacterium tuberculosis, UniProt P9WHJ3); assay: Fluorescence Cell-Free Homogeneous Dose Retest to Identify Inhibitors of RecA-Intein Splicing Activity. [Related pubchem assays (depositor defined):AID2097, AID2223, AID489010, AID492950]; format: functional
T5 sequence (P9WHJ3 whole entry): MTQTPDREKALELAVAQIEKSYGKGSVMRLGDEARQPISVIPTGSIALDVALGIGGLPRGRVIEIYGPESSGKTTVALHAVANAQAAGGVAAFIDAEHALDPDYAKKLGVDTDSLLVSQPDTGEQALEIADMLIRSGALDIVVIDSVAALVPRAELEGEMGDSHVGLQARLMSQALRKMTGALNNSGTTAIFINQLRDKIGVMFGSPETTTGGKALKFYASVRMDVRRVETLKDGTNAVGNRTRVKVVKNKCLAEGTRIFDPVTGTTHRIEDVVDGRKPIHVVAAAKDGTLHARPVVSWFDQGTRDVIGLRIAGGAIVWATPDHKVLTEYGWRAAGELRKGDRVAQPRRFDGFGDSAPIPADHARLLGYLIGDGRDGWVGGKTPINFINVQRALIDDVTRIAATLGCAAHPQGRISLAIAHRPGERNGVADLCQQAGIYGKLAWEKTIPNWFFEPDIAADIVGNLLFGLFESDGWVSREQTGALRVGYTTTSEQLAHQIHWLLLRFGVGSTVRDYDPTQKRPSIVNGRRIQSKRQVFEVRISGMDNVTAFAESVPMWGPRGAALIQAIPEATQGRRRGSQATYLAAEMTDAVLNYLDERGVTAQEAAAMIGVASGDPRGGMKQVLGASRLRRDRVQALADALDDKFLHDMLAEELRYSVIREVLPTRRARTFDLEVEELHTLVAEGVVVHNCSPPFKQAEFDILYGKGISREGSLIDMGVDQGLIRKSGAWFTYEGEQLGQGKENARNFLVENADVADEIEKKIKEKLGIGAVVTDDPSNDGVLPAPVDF

Cytochrome P450 2D6 = Cytochrome P450 2D6 (Homo sapiens, UniProt P10635);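 also: CYP2D6 member of a cytochrome P450 panel assay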
Cytochrome P450 2C9 = Cytochrome P450 2C9 (Homo sapiens, UniProt P11712)
[14] = molecular target: T6, Calpain-2 catalytic subunit (Sus scrofa, UniProt P43367); assay: m-calpain protease blockers, concentration series – biochemical, fluorogenic peptide substrate, dose response (AID 1420); format: functional
T6 sequence (P43367 whole entry): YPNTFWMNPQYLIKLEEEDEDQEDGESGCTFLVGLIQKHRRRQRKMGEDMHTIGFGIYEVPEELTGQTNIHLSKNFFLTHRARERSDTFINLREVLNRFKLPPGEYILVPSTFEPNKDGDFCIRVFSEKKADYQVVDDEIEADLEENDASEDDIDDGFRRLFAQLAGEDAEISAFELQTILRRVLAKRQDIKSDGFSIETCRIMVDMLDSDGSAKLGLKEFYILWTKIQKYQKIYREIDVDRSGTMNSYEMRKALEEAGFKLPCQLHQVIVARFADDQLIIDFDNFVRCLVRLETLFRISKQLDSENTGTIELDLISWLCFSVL

T2 sequence (P49327 whole entry): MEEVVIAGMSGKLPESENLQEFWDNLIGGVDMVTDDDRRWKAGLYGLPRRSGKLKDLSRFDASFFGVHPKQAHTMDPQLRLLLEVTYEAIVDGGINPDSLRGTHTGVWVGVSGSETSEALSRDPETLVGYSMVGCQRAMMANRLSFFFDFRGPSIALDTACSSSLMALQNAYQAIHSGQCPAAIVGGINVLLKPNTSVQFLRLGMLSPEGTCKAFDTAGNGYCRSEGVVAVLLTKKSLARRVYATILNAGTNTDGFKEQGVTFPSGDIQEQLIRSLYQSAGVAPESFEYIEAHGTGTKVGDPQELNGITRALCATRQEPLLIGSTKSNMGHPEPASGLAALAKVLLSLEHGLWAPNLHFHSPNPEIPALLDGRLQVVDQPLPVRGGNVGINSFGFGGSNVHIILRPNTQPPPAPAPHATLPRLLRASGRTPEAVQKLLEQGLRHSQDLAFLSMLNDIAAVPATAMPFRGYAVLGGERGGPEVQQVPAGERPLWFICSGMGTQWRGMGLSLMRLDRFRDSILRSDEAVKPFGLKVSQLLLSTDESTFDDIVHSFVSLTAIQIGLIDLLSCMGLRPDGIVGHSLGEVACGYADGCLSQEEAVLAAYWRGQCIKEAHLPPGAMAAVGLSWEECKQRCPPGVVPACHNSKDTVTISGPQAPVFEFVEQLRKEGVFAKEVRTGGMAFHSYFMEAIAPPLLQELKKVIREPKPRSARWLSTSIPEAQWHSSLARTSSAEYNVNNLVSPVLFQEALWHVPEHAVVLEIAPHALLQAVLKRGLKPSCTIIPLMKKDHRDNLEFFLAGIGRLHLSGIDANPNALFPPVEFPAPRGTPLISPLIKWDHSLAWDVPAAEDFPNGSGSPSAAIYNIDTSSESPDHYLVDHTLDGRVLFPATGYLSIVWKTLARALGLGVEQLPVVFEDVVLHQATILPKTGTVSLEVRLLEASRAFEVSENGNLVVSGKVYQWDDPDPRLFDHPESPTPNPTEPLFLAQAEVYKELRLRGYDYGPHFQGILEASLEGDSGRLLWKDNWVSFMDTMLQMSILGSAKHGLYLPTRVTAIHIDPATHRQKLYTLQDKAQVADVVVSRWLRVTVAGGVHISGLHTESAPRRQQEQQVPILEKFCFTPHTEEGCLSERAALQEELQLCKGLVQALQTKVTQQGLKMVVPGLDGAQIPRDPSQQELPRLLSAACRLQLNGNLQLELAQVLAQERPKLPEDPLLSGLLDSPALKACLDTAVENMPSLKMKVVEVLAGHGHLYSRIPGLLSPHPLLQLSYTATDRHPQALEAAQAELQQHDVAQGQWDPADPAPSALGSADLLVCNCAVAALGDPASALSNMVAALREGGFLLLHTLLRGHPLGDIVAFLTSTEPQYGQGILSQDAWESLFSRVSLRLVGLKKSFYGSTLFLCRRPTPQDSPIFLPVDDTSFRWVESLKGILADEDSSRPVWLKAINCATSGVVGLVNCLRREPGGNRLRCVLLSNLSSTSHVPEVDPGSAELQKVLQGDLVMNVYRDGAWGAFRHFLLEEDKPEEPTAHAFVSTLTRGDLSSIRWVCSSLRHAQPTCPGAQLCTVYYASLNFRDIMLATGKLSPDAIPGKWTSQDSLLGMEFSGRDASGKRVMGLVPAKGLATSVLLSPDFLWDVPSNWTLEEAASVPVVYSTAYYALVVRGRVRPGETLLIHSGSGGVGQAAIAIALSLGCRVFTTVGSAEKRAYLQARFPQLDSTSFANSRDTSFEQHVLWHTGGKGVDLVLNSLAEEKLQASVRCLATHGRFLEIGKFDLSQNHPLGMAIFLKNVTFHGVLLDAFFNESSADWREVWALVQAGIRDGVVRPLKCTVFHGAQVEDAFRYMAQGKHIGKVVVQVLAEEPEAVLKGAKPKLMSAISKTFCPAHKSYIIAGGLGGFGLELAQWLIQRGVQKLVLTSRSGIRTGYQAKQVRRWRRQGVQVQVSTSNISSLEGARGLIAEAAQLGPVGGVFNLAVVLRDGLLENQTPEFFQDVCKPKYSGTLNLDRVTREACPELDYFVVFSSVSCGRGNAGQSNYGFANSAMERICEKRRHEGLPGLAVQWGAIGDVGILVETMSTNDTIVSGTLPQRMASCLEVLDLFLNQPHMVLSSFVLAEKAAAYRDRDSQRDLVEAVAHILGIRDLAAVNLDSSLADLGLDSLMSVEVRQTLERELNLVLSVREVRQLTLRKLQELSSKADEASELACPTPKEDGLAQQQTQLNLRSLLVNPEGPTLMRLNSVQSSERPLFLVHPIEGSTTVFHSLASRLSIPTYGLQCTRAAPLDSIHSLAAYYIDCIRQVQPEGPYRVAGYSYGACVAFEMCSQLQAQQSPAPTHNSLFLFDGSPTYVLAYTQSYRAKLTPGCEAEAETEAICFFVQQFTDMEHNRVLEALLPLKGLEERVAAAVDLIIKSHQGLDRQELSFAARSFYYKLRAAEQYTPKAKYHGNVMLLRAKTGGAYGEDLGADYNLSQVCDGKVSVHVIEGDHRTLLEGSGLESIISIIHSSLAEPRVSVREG
Sequence of Cytochrome P450 2D6 (P10635 whole entry): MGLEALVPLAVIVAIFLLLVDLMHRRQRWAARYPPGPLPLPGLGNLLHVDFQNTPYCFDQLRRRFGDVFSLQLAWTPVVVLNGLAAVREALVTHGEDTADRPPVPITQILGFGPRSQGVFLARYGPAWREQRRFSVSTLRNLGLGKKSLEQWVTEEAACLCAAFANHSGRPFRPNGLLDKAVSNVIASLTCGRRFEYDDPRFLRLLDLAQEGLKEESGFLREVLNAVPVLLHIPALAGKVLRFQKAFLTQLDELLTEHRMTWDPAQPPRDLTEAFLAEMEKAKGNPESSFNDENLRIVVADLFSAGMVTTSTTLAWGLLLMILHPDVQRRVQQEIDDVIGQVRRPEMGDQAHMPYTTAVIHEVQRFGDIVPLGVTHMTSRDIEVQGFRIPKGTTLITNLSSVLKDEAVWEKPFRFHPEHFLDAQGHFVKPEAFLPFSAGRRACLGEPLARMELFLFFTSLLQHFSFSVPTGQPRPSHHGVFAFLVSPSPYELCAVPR
Sequence of Cytochrome P450 2C9 (P11712 whole entry): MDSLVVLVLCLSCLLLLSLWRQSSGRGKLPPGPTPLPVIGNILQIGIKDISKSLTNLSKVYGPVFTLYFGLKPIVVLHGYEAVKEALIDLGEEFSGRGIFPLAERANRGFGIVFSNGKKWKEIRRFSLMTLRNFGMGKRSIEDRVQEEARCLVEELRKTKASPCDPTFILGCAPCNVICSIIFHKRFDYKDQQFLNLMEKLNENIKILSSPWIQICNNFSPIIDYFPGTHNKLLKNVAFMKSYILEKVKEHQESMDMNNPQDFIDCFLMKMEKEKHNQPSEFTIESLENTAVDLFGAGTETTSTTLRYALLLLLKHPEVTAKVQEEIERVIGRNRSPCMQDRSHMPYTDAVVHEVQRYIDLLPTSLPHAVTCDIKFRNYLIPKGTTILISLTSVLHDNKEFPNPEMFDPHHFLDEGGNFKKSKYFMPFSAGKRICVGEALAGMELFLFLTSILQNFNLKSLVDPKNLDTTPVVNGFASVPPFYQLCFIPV

CC(=O)Oc1ccc2ccccc2c1C(NC(=O)Cc1ccccc1)c1ccccc1Cl (configuration not stated)
EC50 [1]: 22.4 µM (active) | EC50 [2]: 27.7 µM (active)

CCCNC(=O)/C(=C/c1cn(S(=O)(=O)N(C)C)c2ccccc12)NC(=O)c1ccc(OC)cc1
EC50 [3]: 4.01 µM (active) | IC50 (Fatty acid synthase [4]): 4.86 µM (active) | IC50 (Fatty acid synthase [5]): 6.75 µM (active)

COc1ccc(/C=C2\N=C(SC)NC2=O)cc1
EC50 [6]: > 150 µM (inactive) | EC50 [7]: > 38 µM (not active)

CN(C)CCCn1cnc2c(c1=N)C(c1ccccc1)c1ccc3ccccc3c1O2 (configuration not stated)
EC50 (BJ [8]): 5.45 µM (inconclusive) | EC50 (BJ [9]): 8.21 µM (active) | EC50 (BJ [10]): 4.25 µM (active) | EC50 [11]: 5.25 µM (active) | IC50 [12]: > 20 µM (inactive) | AC50 (INS1): 6.49 µM (active)

CCOC(=O)c1oc2nc(CC(C)C)c3c(c2c1N)CCC3
AC50 [13]: 91.7 µM (active) | EC50 (Protein RecA): > 380 µM (inactive) | AC50 (Cytochrome P450 2D6): 25.1 µM (inconclusive) | AC50 (Cytochrome P450 2C9): inconclusive

COc1cc2ccccc2cc1C(=O)N(CCN(C)C)c1nc2ccc(Br)cc2s1
EC50 [6]: 101 µM (active) | EC50 [7]: > 38 µM (not active)

CCCCn1cc[n+](C2=C([N-]S(=O)(=O)c3ccccc3)C(=O)c3ccccc3C2=O)c1
EC50 [1]: 5.34 µM (active) | EC50 [2]: 5.73 µM (active)

O=C(N1CCN(c2ccccn2)CC1)N1c2ccccc2Sc2ccccc21
EC50 (BJ [8]): 0.62 µM (active) | EC50 (BJ [9]): 53.6 µM (inconclusive) | IC50 [14]: 4.55 µM (not active) | EC50 (BJ [10]): 0.979 µM (inconclusive) | EC50 [11]: 0.523 µM (active)

CC(C)(C)c1ccc(C(=O)NCCC(=O)Nc2cc(Cl)ccc2N2CCOCC2)cc1
IC50 (Fatty acid synthase [4]): 9.59 µM (active) | IC50 (Fatty acid synthase [5]): 4.54 µM (active)

N#Cc1cc2sc3nnc(-c4ccncc4)n3c2cc1C#N
IC50 (Fatty acid synthase [4]): 3.82 µM (active) | IC50 (Fatty acid synthase [5]): 4.69 µM (active)

COC(=O)C1CCN(Cc2c(C(=O)N3C[C@@H](C)O[C@@H](C)C3)nc3ccc(Cl)cn23)CC1
EC50 [6]: > 150 µM (inactive) | EC50 [7]: > 38 µM (not active)

Reference: ChEMBL document CHEMBL1201862, “PubChem BioAssay data set” (2004)
